Results from patent US10806121B2, “Animal litter containing a pheromone composition” (Sergeant's Pet Care Products, LLC, priority 2014, dated 2020).

System: cats
Test: Example 6: animal litter composition with molded particles for use with cats
Format: in vivo
Settings: animal litter composition comprising about 0.0004% to about 0.0006% (w/w) 2-methylbut-2-enal; most evident in the first 6-8 hours
Source text: An animal litter composition comprising a pheromone composition can be prepared by first forming molded particles from a shaped polymeric matrix prepared in accordance with Example 4 or 5, wherein the molded particles comprise a pheromone composition comprising 2-methylbut-2-enal. The molded particles can then be combined with, mixed into, or otherwise incorporated into litter material upon use of the litter. An animal litter composition of about 2 lbs. to about 6 lbs. will comprise between about 0.01% and about 15% (w/w) molded particles (the molded particles comprising about 0.02% (w/w) 2-methylbut-2-enal) in order to be effective in alleviating litter dominant behavior and associated aggression and anxiety in cats exposed to the pheromone composition as released from the litter. For example, an animal litter comprising about 2% to about 3% molded particles will result in the litter comprising between about 0.0004% (w/w) and about 0.0006% (w/w) 2-methylbut-2-enal. Accordingly, it will be observed that an animal litter composition comprising about 0.0004% to about 0.0006% (w/w) 2-methylbut-2-enal will elicit a positive behavior modification in cats, which behavior modification can last at least 24 hours, and is most evident in the first 6-8 hours following exposure of the animal to the animal litter composition.

C/C=C(\C)C=O [RP, 2-methylbut-2-enal]
duration of positive behavior modification in cats: at least 24 hours
